The record followed here is patent US4521537A, “Spiro[2H-1,4-benzodioxepin-3(5H)4'-piperidine and -3'-pyrrolidine] compounds and their use as antihypertensive agents” (Hoechst-Roussel Pharmaceuticals Incorporated, priority 1984, dated 1985).

Structures can show the parent of a compound that is named as a salt. Where two headings read alike, the source gives them in different places.

One assay relates to mice. As to the kind of experiment: phenylquinone-induced writhing test in mice (PQW), analgesia. The class given is in vivo, male, CD-1 mice. The settings on record: Mus musculus; for change in vivo at 20 mg/kg: 20 mg/kg SC, read-out: PQW % (percent inhibition of writhing). As for the experimental part:
Compounds of this invention produce analgesia when administered to mammals. A phenylquinone-induced writhing test in mice (PQW) was used as an assay to detect analgesia. The procedure employed was a modification of Siegmund, E., Cadmus, R. and Lu, G: Proc. Soc. Exptl. Bio. Med., 95: 729 (1957). 12.5 mg of phenyl-p-benzoquinone were dissolved in 5 ml of 95% ethanol and q.s. to 100 ml with distilled water and administered to mice (10 ml/kg, i.p.). This produces a characteristic "writhe" which is defined as an inward rotation of one or more feet with twisting and turning of the trunk, drawing in of the abdominal wall, lordosis and arching of the back.
A total of 28 male, CD-1 mice (18 to 30 grams) were employed for a time response. Animals recived food and water ad libitum. Drugs to be tested were prepared with distilled water and, if insoluble, one drop of a suitable surfactant was added.
Twenty animals (5/group) were administered the drug 15, 30, 45 and 60 minutes prior to phenylquinone injections. Control animals (2/group) received an equal amount of vehicle. After the administration of phenylquinone the mice were placed separately into one-liter beakers and 5 minutes were allowed to lapse. The mice were then observed for a period of 10 minutes and the number of writhes were recorded for each animal. The formula for computing percent inhibition is: [formula]
The time period with the greatest percent of inhibition is considered the peak time.
A dose range is run in the same fashion as a time response except 10 animals per group were tested at the peak time of drug activity. Fifty animals, 4 drug groups, and a vehicle control were employed. Animals were dosed and tested in a randomized manner. An estimated ED50 was calculated by a computer linear regression analysis.

The subject of assay [1] is spontaneous hypertensive rat. The experiment in a line: antihypertensive activity, spontaneous hypertensive rat (SHR) test, indirect tail cuff method. The class given is in vivo. Here is the method:
Compounds of this invention are useful as antihypertensive agents due to their ability to depress blood pressure in mammals. Antihypertensive activity is measured in the spontaneous hypertensive rat by the indirect tail cuff method described by A. Schwartz, Ed., Methods in Pharmacology, Vol. page 135, Appleton Century Crafts, New York (1971). […] The drop in blood pressure is measured on the third day following administration. The antihypertensive activity is expressed as mm Hg decrease in mean arterial blood pressure.

[2] abbreviates: Table I, 10 mg/kg PO, three days.
Setting [3] is: Table I, 50 mg/kg PO, three days.
Where [4] appears, read: Table I, 3 mg/kg PO, three days.

With `CC1Oc2ccccc2COC12CCN(CCNC(=N)N)CC2` (stereo not drawn) [Example 50, [2-(2-Methylspiro[2H-1,4-benzodioxepin-3(5H)4'-piperidin]-1'-yl)ethyl]-guanidine hemisulfate hemihydrate], in the assay with mice (Table II), the change in vivo at 20 mg/kg was -8%.
Consider `CC1Oc2ccccc2COC12CCN(CCCC(O)c1ccc(F)cc1)CC2` (stereo not drawn) [Example 23, 1'-[4-Hydroxy-4-(4-fluorophenyl)butyl]-2-methylspiro[2H-1,4-benzodioxepin-3(5H)4'-piperidine]], for which the “SHR mm Hg (decrease in mean arterial blood pressure)” value in assay [1] (setting [2]) is -31 mm Hg.
Consider `CC1Oc2ccccc2COC12CCN(CCC=C(c1ccc(F)cc1)c1ccc(F)cc1)CC2` (stereo not drawn) [Example 10, 1'-[4,4-Bis(4-fluorophenyl)-3-butenyl]-2-methylspiro[2H-1,4-benzodioxepin-3(5H)4'-piperidine]maleate], for which, in assay [1] (setting [3]), the “SHR mm Hg (decrease in mean arterial blood pressure)” value is listed as -18 mm Hg.
As for `CC1Oc2ccc(Cl)cc2COC12CCN(C(c1ccc(F)cc1)c1ccc(F)cc1)CC2` (stereo not drawn) [Example 82, 7-Chloro-2-methyl-1'-bis(4-fluorophenyl)methylspiro[2H-1,4-benzodioxepin-3(5H)4'-piperidine]hydrochloride], the change in vivo at 20 mg/kg in the assay on mice (Table III) was -30%.
Regarding `CC1Oc2ccc([N+](=O)[O-])cc2COC12CCNCC2` (stereo not drawn) [Example 81, 2-Methyl-7-nitrospiro[2H-1,4-benzodioxepin-3(5H)4'-piperidine]hydrochloride], in the assay on mice (Table III), the change in vivo at 20 mg/kg is -80%.
`CC1Oc2ccc(Cl)cc2COC12CCN(CCC(c1ccccc1)c1ccccc1)CC2` (stereo not drawn) [Example 20, 7-Chloro-2-methyl-1'-(3,3-diphenylpropyl)spiro[2H-1,4-benzodioxepin-3(5H)4'-piperidine]hydrochloride]: the “SHR mm Hg (decrease in mean arterial blood pressure)” value in assay [1] (setting [3]) was -15 mm Hg.
As to `CC1Oc2ccccc2COC12CCN(CCCC1(c3ccc(F)cc3)OCCO1)CC2` (stereo not drawn) [Example 9, 2-Methyl-1'-[3-[2-(4-fluorophenyl)-1,3-dioxolan-2yl]propyl]spiro[2H-1,4-benzodioxepin-3(5H)4'-piperidine]maleate], the “SHR mm Hg (decrease in mean arterial blood pressure)” value in assay [1] (setting [3]) is -34 mm Hg.
Regarding `CCC(=O)O[C@](Cc1ccccc1)(c1ccccc1)[C@H](C)CN(C)C` [Propoxyphene, reference compound], in the assay on mice (sc, read-out: ED50 (PQW)), the ED50 was found to be 3.9 mg/kg.
Take `CC1Oc2ccccc2COC12CCN(CCN(C)C)CC2` (stereo not drawn) [Example 58, 1'-[2-(N,N-dimethylamino)ethyl]-2-methylspiro[2H-1,4-benzodioxepin-3(5H)4'-piperidine]dihydrochloride]: in the assay on mice (Table II), the change in vivo at 20 mg/kg was -6%.
Regarding `CC(=O)N1CCC2(CC1)OCc1ccccc1OC2C` (stereo not drawn) [Example 73, 1'-Acetyl-2-methylspiro[2H-1,4-benzodioxepin-3(5H)4'-piperidine]], in the assay with mice (Table III), the change in vivo at 20 mg/kg is -27%.
`CC1Oc2ccccc2COC12CCN(CCC=C(c1ccccc1)c1ccccc1)CC2` (stereo not drawn) [Example 12, 1'-[4,4-Diphenyl-3-butenyl]-2-methylspiro[2H-1,4-benzodioxepin-3(5H)4'-piperidine]maleate]: the “SHR mm Hg (decrease in mean arterial blood pressure)” value in assay [1] (setting [3]) is recorded as -20 mm Hg.
For the molecule `CC1Oc2ccc(Cl)cc2COC12CCN(CCC=C(c1ccc(F)cc1)c1ccc(F)cc1)CC2` (stereo not drawn) [Example 19, 1'-[4,4-Bis(4-fluorophenyl)-3-butenyl]-7-chloro-2-methylspiro[2H-1,4-benzodioxepin-3(5H)4'-piperidine]oxalate], the “SHR mm Hg (decrease in mean arterial blood pressure)” value in assay [1] (setting [2]) is -43 mm Hg.
Take `CC1Oc2ccccc2COC12CCN(CC(O)COc1ccc(F)cc1)CC2` (stereo not drawn) [Example 90, 2-Methyl-1'-[2-hydroxy-3-(4-fluorophenoxy)propyl]spiro[2H-1,4-benzodioxepin-3(5H)4'-piperidine]hydrochloride]: the change in vivo at 20 mg/kg in the assay on mice (Table III) is -99%.
For the molecule `CC1Oc2ccc([N+](=O)[O-])cc2COC12CCN(CCCC(c1ccc(F)cc1)c1ccc(F)cc1)CC2` (stereo not drawn) [Example 83, 1'-[4,4-Bis(4-fluorophenyl)butyl]-2-methyl-7-nitrospiro[2H-1,4-benzodioxepin-3(5H)4'-piperidine]hydrochloride], in assay [1] (Table III, 3 mg/kg PO), the “SHR mm Hg (decrease in mean arterial blood pressure)” value is -65 mm Hg.
Turning to `CC1Oc2ccc(F)cc2COC12CCN(CCCC(c1ccccc1)c1ccccc1)CC2` (stereo not drawn) [Example 41, 1'-(4,4-Diphenylbutyl)-7-fluoro-2-methylspiro[2H-1,4-benzodioxepin-3(5H)4'-piperidine]hydrochloride], the “SHR mm Hg (decrease in mean arterial blood pressure)” value in assay [1] (setting [3]) was -34 mm Hg.
`CC1Oc2ccc(Cl)cc2COC12CCN(CCCC(c1ccc(F)cc1)c1ccc(F)cc1)CC2` (stereo not drawn) [Example 18, 1'-[4,4-Bis(4-fluorophenyl)butyl]-7-chloro-2-methylspiro[2H-1,4-benzodioxepin-3(5H)4'-piperidine]oxalate]: the “SHR mm Hg (decrease in mean arterial blood pressure)” value in assay [1] (Table I, 0.3 mg/kg PO, three days) is -41 mm Hg.
Regarding `CC1Oc2ccccc2COC12CCN(CCCC(c1ccc(Cl)cc1)c1ccc(Cl)cc1)CC2` (stereo not drawn) [Example 15, 1'-[4,4-Bis(4-chlorophenyl)butyl]-2-methylspiro[2H-1,4-benzodioxepin-3(5H)4'-piperidine]oxalate], the “SHR mm Hg (decrease in mean arterial blood pressure)” value in assay [1] (setting [3]) is given as -27 mm Hg.
On to `CC1Oc2ccc(Cl)cc2COC12CCN(CCCC(C1CCCCC1)C1CCCCC1)CC2` (stereo not drawn) [Example 87, 1'-(4,4-Dicyclohexylbutyl)-7-chloro-2-methylspiro[2H-1,4-benzodioxepin-3(5H)4'-piperidine]hydrochloride], for which the “SHR mm Hg (decrease in mean arterial blood pressure)” value in assay [1] (Table III, 50 mg/kg PO) is given as -69 mm Hg.
Regarding `CC1Oc2ccccc2COC12CCN(CCCCc1ccc(F)cc1)CC2` (stereo not drawn) [Example 14, 1'-[4-(4-Fluorophenyl)butyl]-2-methylspiro[2H-1,4-benzodioxepin-3(5H)4'-piperidine]hydrochloride], the “SHR mm Hg (decrease in mean arterial blood pressure)” value in assay [1] (setting [3]) was -34 mm Hg.
Regarding `CC1Oc2ccc(Cl)cc2COC12CCN(CCCC(c1ccccc1)c1ccccc1)CC2` (stereo not drawn) [Example 17, 1'-[4,4-Diphenylbutyl]-7-chloro-2-methylspiro[2H-1,4-benzodioxepin-3(5H)4'-piperidine]oxalate], the results for the “SHR mm Hg (decrease in mean arterial blood pressure)” value in assay [1] (setting [4]) and in assay [1] (setting [3]) were -23 mm Hg and -84 mm Hg, respectively.
Regarding `CC1Oc2ccccc2COC12CCN(CCCC(c1ccccc1)c1ccccc1)CC2` (stereo not drawn) [Example 11, 1'-(4,4-Diphenylbutyl)-2-methylspiro[2H-1,4-benzodioxepin-3(5H)4'-piperidine]oxalate], the “SHR mm Hg (decrease in mean arterial blood pressure)” value in assay [1] (setting [3]) is recorded as -17 mm Hg.
For the molecule `CC1Oc2ccc(F)cc2COC12CCN(CCCC(c1ccc(F)cc1)c1ccc(F)cc1)CC2` (stereo not drawn) [Example 42, 1'-[4,4-Bis(4-fluorophenyl)butyl]-7-fluoro-2-methylspiro[2H-1,4-benzodioxepin-3(5H)4'-piperidine]hydrochloride], the “SHR mm Hg (decrease in mean arterial blood pressure)” value in assay [1] (setting [3]) is -126 mm Hg.
In assay [1] (similar test, 50 mg/kg PO for five days), `C[C@](N)(Cc1ccc(O)c(O)c1)C(=O)O` [α-methyl dopa, reference compound] yielded an SHR value of -40 mm Hg.
For the molecule `CC1Oc2ccccc2COC12CCN(CCCC(Oc1ccc(F)cc1)c1ccc(F)cc1)CC2` (stereo not drawn) [Example 24, 1'-[4-(4-Fluorophenoxy)-4-(4-fluorophenyl)butyl]-2-methylspiro[2H-1,4-benzodioxepin-3(5H)4'-piperidine]oxalate], in assay [1] (setting [3]), the “SHR mm Hg (decrease in mean arterial blood pressure)” value is -24 mm Hg.
Regarding `CC1Oc2ccc(Br)cc2COC12CCN(CCCC(c1ccc(F)cc1)c1ccc(F)cc1)CC2` (stereo not drawn) [Example 21, 7-Bromo-1'-[4,4-bis(4-fluorophenyl)butyl]-2-methylspiro[2H-1,4-benzodioxepin-3(5H)4'-piperidine]oxalate], the “SHR mm Hg (decrease in mean arterial blood pressure)” value in assay [1] (setting [4]) is reported as -63 mm Hg; in assay [1] (Table I, 5 mg/kg PO, three days) it was -74 mm Hg.
Turning to `CC1Oc2ccccc2COC12CCNCC2` (stereo not drawn) [Example 36, 2-Methylspiro[2H-1,4-benzodioxepin-3(5H)4'-piperidine]oxalate], the “SHR mm Hg (decrease in mean arterial blood pressure)” value in assay [1] (setting [3]) is -42 mm Hg.
As to `CC1Oc2ccccc2COC12CCN(CCCC(c1ccc(F)cc1)c1ccc(F)cc1)CC2` (stereo not drawn) [Example 8, 1'-[4,4-Bis-(4-fluorophenyl)butyl]-2-methylspiro[2H-1,4-benzodioxepin-3(5H)4'-piperidine]oxalate], the “SHR mm Hg (decrease in mean arterial blood pressure)” value in assay [1] (setting [3]) is on record as -102 mm Hg.
The same measure, in the same setting: the same measure for `CC1Oc2ccc(Cl)cc2COC12CCN(CCC=C(c1ccccc1)c1ccccc1)CC2` (stereo not drawn) [Example 16, 1'-[4,4-Diphenyl-3-butenyl]-7-chloro-2-methylspiro[2H-1,4-benzodioxepin-3(5H)4'-piperidine]oxalate]: -47 mm Hg.
